Measured values from patent publication US20230151003A1, “COMPOUNDS AND METHODS OF USE” (Exelixis, Inc., priority 2020, published 2023).

Legend:
AXL = molecular target: T1, AXL (Homo sapiens, UniProt P30530); assay: AXL autophosphorylation ELISA in A-172 cells; type: cell-based; conditions: Table 3 Cellular Activities, Gas6-stimulated, phospho-AXL ELISA
T1 construct: endogenous in cells; host or cells: A-172 glioblastoma cells (ATCC #CRL-1620)
T1 sequence (P30530 26-894): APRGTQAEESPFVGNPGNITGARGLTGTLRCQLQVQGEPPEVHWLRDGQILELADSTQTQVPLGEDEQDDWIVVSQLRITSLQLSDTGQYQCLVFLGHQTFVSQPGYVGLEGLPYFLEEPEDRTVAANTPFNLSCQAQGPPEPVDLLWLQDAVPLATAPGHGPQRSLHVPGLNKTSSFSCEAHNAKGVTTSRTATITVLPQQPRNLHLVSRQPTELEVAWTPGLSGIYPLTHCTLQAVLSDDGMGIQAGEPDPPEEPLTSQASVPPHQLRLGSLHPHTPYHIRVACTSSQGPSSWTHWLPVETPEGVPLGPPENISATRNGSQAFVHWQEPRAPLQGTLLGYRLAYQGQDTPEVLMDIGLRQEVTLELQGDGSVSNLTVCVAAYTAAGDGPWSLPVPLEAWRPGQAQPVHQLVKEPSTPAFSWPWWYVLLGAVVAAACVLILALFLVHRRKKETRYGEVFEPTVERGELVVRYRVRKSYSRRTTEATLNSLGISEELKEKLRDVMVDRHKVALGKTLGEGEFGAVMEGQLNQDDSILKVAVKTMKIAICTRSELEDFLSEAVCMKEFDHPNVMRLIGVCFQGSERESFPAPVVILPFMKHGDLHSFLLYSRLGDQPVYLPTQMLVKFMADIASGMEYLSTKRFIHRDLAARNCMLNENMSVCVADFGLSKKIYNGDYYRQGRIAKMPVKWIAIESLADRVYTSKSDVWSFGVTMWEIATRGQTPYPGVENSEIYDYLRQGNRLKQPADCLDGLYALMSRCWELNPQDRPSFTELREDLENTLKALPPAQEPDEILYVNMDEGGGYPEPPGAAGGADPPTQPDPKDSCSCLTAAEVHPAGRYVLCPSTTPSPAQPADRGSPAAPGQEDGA
In short: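 Phospho-AXL in lysates measured by ELISA after Gas6 stimulation (1 μg/mL, 15 min) of A-172 cells pre-incubated 1 h with an 8-point compound dilution series in 0.3% DMSO after 24 h serum starvation. IC50 by 4-parameter logistic fit, with DMSO-treated and reference-inhibitor wells as 100% and 0% activity.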

Met = Met (Homo sapiens, UniProt P08581); assay: Met autophosphorylation ELISA in PC-3 cells; type: cell-based; design: endogenous in cells; host or cells: PC-3 prostate cancer cells (ATCC #CRL-1435); conditions: Table 3 Cellular Activities, HGF-stimulated, phospho-Met ELISA, read-out: c-Met IC50
Met, sequence (P08581 25-1390): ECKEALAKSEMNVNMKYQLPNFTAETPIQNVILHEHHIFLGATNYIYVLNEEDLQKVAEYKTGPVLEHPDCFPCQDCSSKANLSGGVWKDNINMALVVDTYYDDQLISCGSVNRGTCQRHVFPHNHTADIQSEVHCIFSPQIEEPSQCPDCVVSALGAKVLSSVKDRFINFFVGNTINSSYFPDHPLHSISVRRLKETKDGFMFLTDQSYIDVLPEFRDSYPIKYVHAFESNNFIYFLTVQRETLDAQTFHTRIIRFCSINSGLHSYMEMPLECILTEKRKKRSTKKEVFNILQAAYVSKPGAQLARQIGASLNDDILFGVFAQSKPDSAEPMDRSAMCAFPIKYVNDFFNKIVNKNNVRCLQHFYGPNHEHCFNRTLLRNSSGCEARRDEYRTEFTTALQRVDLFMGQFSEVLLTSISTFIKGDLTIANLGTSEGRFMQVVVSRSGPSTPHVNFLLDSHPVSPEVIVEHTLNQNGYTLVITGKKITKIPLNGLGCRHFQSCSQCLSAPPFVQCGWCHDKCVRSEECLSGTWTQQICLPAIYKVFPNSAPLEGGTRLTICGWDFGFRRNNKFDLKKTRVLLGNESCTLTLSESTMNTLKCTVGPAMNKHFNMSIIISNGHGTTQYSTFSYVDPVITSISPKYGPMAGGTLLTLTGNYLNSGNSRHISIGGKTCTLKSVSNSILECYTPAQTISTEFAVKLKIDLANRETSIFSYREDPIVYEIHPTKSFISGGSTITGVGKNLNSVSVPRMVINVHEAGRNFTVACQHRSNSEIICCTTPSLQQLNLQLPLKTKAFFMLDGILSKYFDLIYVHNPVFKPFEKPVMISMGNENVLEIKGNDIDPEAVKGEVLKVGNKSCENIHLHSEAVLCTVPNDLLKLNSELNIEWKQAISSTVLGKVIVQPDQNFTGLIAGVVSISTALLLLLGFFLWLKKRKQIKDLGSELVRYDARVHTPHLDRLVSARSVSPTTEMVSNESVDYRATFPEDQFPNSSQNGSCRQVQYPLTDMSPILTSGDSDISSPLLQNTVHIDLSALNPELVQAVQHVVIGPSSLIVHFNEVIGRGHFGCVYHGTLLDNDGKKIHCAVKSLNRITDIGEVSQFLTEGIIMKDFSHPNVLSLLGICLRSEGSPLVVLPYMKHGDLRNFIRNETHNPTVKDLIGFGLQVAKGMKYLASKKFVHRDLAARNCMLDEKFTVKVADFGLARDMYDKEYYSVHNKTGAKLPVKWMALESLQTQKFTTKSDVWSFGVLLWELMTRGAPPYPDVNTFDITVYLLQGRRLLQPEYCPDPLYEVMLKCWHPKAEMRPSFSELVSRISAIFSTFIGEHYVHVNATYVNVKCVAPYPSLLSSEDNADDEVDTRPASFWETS
In short: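 IC50 derived by 4-parameter logistic regression of phospho-Met (panTyr) sandwich ELISA signal, scaled between HGF-stimulated DMSO and reference-inhibitor lysates. PC-3 cells, serum-starved 3 h, received an 8-point compound series (0.3% DMSO) for 1 h before 10 min stimulation with 100 ng/mL human HGF.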

IC50 (AXL) [nM] | IC50 (Met) [nM] | SMILES
≤ 100 | ≤ 100 | COc1cnc2c(Oc3ccc(NC(=O)c4cn(CCF)c(C)c(-c5cc(C)cs5)c4=O)cc3F)ccnc2c1 [Compound 328, 1-(2-Fluoroethyl)-N-[3-fluoro-4-[(7-methoxy-1,5-naphthyridin-4-yl)oxy]phenyl]-6-methyl-5-(4-methylthiophen-2-yl)-4-oxopyridine-3-carboxamide]
≤ 100 | ≤ 100 | COc1cc2nccc(Oc3ccc(NC(=O)c4ccc(C)n(-c5ccncc5F)c4=O)cc3F)c2nc1OC [Compound 220, N-[4-[(6,7-Dimethoxy-1,5-naphthyridin-4-yl)oxy]-3-fluorophenyl]-1-(3-fluoropyridin-4-yl)-6-methyl-2-oxopyridine-3-carboxamide]
≤ 100 | ≤ 100 | COc1ccc2nccc(Oc3ccc(NC(=O)c4ccc(C)n(-c5ccc(F)cn5)c4=O)cc3F)c2c1 [Compound 49, N-[3-Fluoro-4-(6-methoxyquinolin-4-yl)oxyphenyl]-1-(5-fluoropyridin-2-yl)-6-methyl-2-oxopyridine-3-carboxamide]
